{"source": "ChEMBL document CHEMBL6121052", "about": "“Design of ROS-Triggered Sesquiterpene Lactone SC Prodrugs as TrxR1 Covalent Inhibitors for the Treatment of Non-Small Cell Lung Cancer” (J Med Chem, 2025)", "key": {"NCI-H1299 [1]": {"test_system": "NCI-H1299", "test": "Induction of apoptosis in human NCI-H1299 cells assessed as viable cells at 5 uM measured after 48 hrs by Annexin V/FITC staining based flow cytometric analysis (reference value: 96.3%)", "assay_type": "functional", "conditions": "read-out: Activity"}, "NCI-H1299 [2]": {"test_system": "NCI-H1299", "test": "Induction of apoptosis in human NCI-H1299 cells assessed as necrotic cells at 2.5 uM measured after 48 hrs by Annexin V/FITC staining based flow cytometric analysis (reference value: 0.62%)", "assay_type": "functional"}, "A549 [3]": {"test_system": "A549", "test": "Antiproliferative activity against human A549 cells assessed as increase in cell viability in presence of NAC", "assay_type": "functional, cell-based"}, "A549 [4]": {"test_system": "A549", "test": "Induction of apoptosis in human A549 cells assessed as early apoptotic cells at 10 uM measured after 48 hrs by Annexin V/FITC staining based flow cytometric analysis (reference value: 1.31 %)", "assay_type": "functional"}, "A549 [5]": {"test_system": "A549", "test": "Induction of apoptosis in human A549 cells assessed as necrotic cells at 10 uM measured after 48 hrs by Annexin V/FITC staining based flow cytometric analysis (reference value: 2.52 %)", "assay_type": "functional"}, "A549 [6]": {"test_system": "A549", "test": "Induction of apoptosis in human A549 cells assessed as necrotic cells at 5 uM measured after 48 hrs by Annexin V/FITC staining based flow cytometric analysis (reference value: 2.52 %)", "assay_type": "functional"}, "NCI-H1299 [7]": {"test_system": "NCI-H1299", "test": "Induction of apoptosis in human NCI-H1299 cells assessed as early apoptotic cells at 5 uM measured after 48 hrs by Annexin V/FITC staining based flow cytometric analysis (reference value: 1.14 %)", "assay_type": "functional"}, "A549 [8]": {"test_system": "A549", "test": "Induction of ferroptosis in human A549 cells assessed as cell death by MTT assay", "assay_type": "functional, cell-based"}, "[9]": {"test": "AUC (0 to infinity) in male Sprague-Dawley rat at 10 mg/kg, iv measured upto 24 hrs by LC-MS/MS analysis", "assay_type": "ADME, organism-based", "conditions": "in vivo"}, "A549 [10]": {"test_system": "A549", "test": "Cytotoxicity against human A549 cells assessed as cell viability incubated for 48 hrs by MTT assay", "assay_type": "functional, cell-based", "conditions": "A549, 48 h"}, "[11]": {"test": "Volume of distribution at steady state in male Sprague-Dawley rat at 10 mg/kg, iv measured upto 24 hrs by LC-MS/MS analysis", "assay_type": "ADME, organism-based", "conditions": "in vivo, read-out: Vdss"}, "[12]": {"test": "Toxicity in BALB/c mouse assessed as spleen damage at 5 to 10 mg/kg, po administered every 2 days for 2 weeks by H and E staining based analysis", "assay_type": "organism-based", "conditions": "in vivo, 336 h, dose 5-10 mg/kg"}, "[13]": {"test": "Toxicity in BALB/c mouse assessed as liver damage at 5 to 10 mg/kg, po administered every 2 days for 2 weeks by H and E staining based analysis", "assay_type": "organism-based", "conditions": "in vivo, 336 h, dose 5-10 mg/kg"}, "A549 [14]": {"test_system": "A549", "test": "Downregulation of TrxR1 level in human A549 cells upto 10 uM incubated for 24 hrs by Western blot analysis", "assay_type": "functional, cell-based"}, "[15]": {"test": "Cmax in male Sprague-Dawley rat at 10 mg/kg, iv measured upto 24 hrs by LC-MS/MS analysis", "assay_type": "ADME, organism-based", "conditions": "in vivo"}, "NCI-H1299 [16]": {"test_system": "NCI-H1299", "test": "Induction of morphological changes in human NCI-H1299 cells assessed as increase in number of contracted shapes upto 10 uM", "assay_type": "functional, cell-based"}, "NCI-H1299 [17]": {"test_system": "NCI-H1299", "test": "Inhibition of colony formation in human NCI-H1299 cells assessed as reduction in colony number at 4 uM incubated for 14 days by crystal violet staining based analysis", "assay_type": "functional, cell-based", "conditions": "time 14.0 day"}, "NCI-H1299 [18]": {"test_system": "NCI-H1299", "test": "Antitumor activity against human NCI-H1299 cells xenografted in BALB/c mouse assessed as reduction in tumor weight at 5 to 10 mg/kg, po administered every 2 days for 2 weeks", "assay_type": "functional, organism-based", "conditions": "dose 5-10 mg/kg"}, "[19]": {"test": "Clearance in male Sprague-Dawley rat at 10 mg/kg, iv measured upto 24 hrs by LC-MS/MS analysis", "assay_type": "ADME, organism-based", "conditions": "in vivo"}, "NCI-H1299 [20]": {"test_system": "NCI-H1299", "test": "Antiproliferative activity against human NCI-H1299 cells assessed as decrease in EdU positive cells at 4 uM measured after 14 days by Hoechst 33342 staining based fluorescence microscopic analysis", "assay_type": "functional, cell-based", "conditions": "time 14.0 day"}, "[21]": {"test": "Tmax in male Sprague-Dawley rat at 10 mg/kg, iv measured upto 24 hrs by LC-MS/MS analysis", "assay_type": "ADME, organism-based", "conditions": "in vivo"}, "[22]": {"biological_target": "T1, Thioredoxin reductase 1, cytoplasmic (Homo sapiens) (UniProt Q16881)", "T1 sequence (whole entry)": "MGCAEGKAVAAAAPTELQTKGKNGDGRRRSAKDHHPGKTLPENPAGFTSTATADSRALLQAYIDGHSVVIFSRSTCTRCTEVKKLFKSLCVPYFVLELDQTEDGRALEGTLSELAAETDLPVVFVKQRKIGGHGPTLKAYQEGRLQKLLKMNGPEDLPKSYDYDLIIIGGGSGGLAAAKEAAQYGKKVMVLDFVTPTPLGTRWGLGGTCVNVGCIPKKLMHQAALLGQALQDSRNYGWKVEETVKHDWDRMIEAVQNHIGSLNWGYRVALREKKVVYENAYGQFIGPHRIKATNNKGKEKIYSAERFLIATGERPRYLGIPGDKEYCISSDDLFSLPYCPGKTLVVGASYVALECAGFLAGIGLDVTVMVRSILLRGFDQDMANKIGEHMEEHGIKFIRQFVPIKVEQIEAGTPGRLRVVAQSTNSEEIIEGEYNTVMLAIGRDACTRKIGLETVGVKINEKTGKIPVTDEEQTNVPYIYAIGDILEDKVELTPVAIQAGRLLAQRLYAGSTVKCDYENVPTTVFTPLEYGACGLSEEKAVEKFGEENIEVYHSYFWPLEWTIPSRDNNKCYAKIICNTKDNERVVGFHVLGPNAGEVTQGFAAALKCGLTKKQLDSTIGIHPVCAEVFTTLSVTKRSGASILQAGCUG", "test": "Inhibition of TrxR1 in human NCI-H2291 cells", "assay_type": "cell-based", "conditions": "dose <= 10.0 µM"}, "A549 [23]": {"test_system": "A549", "test": "Induction of ferroptosis in human A549 cells assessed as effect on GPX4 protein expression at 10 uM incubated for 24 hrs by Western blotting analysis", "assay_type": "functional, cell-based"}, "NCI-H1299 [24]": {"test_system": "NCI-H1299", "test": "Induction of apoptosis in human NCI-H1299 cells assessed as chromatin condensation upto 10 uM by Hoechst 33258 staining based fluorescence microscopic analysis", "assay_type": "functional, cell-based"}, "A549 [25]": {"test_system": "A549", "test": "Induction of ferroptosis in human A549 cells assessed as increase in intracellular LPO accumulation at 5 uM incubated for 24 hrs by flow cytometry analysis", "assay_type": "functional, cell-based"}, "NCI-H1299 [26]": {"test_system": "NCI-H1299", "test": "Induction of ferroptosis in human NCI-H1299 cells assessed as cell death by MTT assay", "assay_type": "functional, cell-based"}, "NCI-H1299 [27]": {"test_system": "NCI-H1299", "test": "Induction of apoptosis in human NCI-H1299 cells assessed as late apoptotic cells at 5 uM measured after 48 hrs by Annexin V/FITC staining based flow cytometric analysis (reference value: 1.96%)", "assay_type": "functional"}, "NCI-H1299 [28]": {"test_system": "NCI-H1299", "test": "Induction of apoptosis in human NCI-H1299 cells assessed as necrotic cells at 10 uM measured after 48 hrs by Annexin V/FITC staining based flow cytometric analysis (reference value: 0.62%)", "assay_type": "functional"}, "NCI-H1299 [29]": {"test_system": "NCI-H1299", "test": "Induction of apoptosis in human NCI-H1299 cells assessed as late apoptotic cells at 2.5 uM measured after 48 hrs by Annexin V/FITC staining based flow cytometric analysis (reference value: 1.96%)", "assay_type": "functional"}, "A549 [30]": {"test_system": "A549", "test": "Induction of apoptosis in human A549 cells assessed as viable cells at 5 uM measured after 48 hrs by Annexin V/FITC staining based flow cytometric analysis (reference value: 90.8 %)", "assay_type": "functional", "conditions": "read-out: Activity"}, "A549 [31]": {"test_system": "A549", "test": "Induction of apoptosis in human A549 cells assessed as late apoptotic cells at 5 uM measured after 48 hrs by Annexin V/FITC staining based flow cytometric analysis (reference value: 5.37%)", "assay_type": "functional"}}, "note": "Activity calls are given as the source filed them. The calls are words filed in the database; no cut-off is given here.", "data": [{"smiles": "CCCNC(=O)O[C@@H]1/C=C(\\C)C[C@H]2C=C(C[C@@H]3OC(=O)[C@H](CSC(=S)N(C)C)[C@H]31)C(=O)O2", "values": [{"measurement": "viability at 5 µM", "setting": "NCI-H1299 [1]", "value": 72.7, "unit": "%"}, {"measurement": "Activity", "setting": "NCI-H1299 [2]", "value": 1.2, "unit": "%"}, {"measurement": "Activity", "setting": "A549 [3]", "value": "Active"}, {"measurement": "Activity", "setting": "A549 [4]", "value": 3.68, "unit": "%"}, {"measurement": "Activity", "setting": "A549 [5]", "value": 3.24, "unit": "%"}, {"measurement": "Activity", "setting": "A549 [6]", "value": 3.5, "unit": "%"}, {"measurement": "Activity", "setting": "NCI-H1299 [7]", "value": 10.2, "unit": "%"}, {"measurement": "Activity", "setting": "A549 [8]", "value": "Active"}, {"measurement": "AUC(0-inf)", "setting": "[9]", "value": 1080, "unit": "ng·h/mL"}, {"measurement": "IC50", "setting": "A549 [10]", "value": 1740, "unit": "nM"}, {"measurement": "Vd", "setting": "[11]", "value": 57.6, "unit": "L/kg"}, {"measurement": "Activity", "setting": "[12]", "value": "Non-toxic"}, {"measurement": "Activity", "setting": "[13]", "value": "Non-toxic"}, {"measurement": "Activity", "setting": "A549 [14]", "value": "Active"}, {"measurement": "Cmax", "setting": "[15]", "value": 2310, "unit": "ng/mL"}, {"measurement": "Activity", "setting": "NCI-H1299 [16]", "value": "Active"}, {"measurement": "inhibition", "setting": "NCI-H1299 [17]", "value": "Active"}, {"measurement": "Activity", "setting": "NCI-H1299 [18]", "value": "Active"}, {"measurement": "clearance", "setting": "[19]", "value": 162, "unit": "mL/min/kg"}, {"measurement": "Activity", "setting": "NCI-H1299 [20]", "value": "Active"}, {"measurement": "Tmax", "setting": "[21]", "value": 1.98, "unit": "min"}, {"measurement": "inhibition", "setting": "[22]", "value": "Dose-dependent-effect"}, {"measurement": "Activity", "setting": "A549 [23]", "value": "Active"}, {"measurement": "Activity", "setting": "NCI-H1299 [24]", "value": "Active"}, {"measurement": "Activity", "setting": "A549 [25]", "value": "Active"}, {"measurement": "Activity", "setting": "NCI-H1299 [26]", "value": "Active"}, {"measurement": "Activity", "setting": "NCI-H1299 [27]", "value": 15.6, "unit": "%"}, {"measurement": "Activity", "setting": "NCI-H1299 [28]", "value": 1.01, "unit": "%"}, {"measurement": "Activity", "setting": "NCI-H1299 [29]", "value": 7.41, "unit": "%"}, {"measurement": "viability at 5 µM", "setting": "A549 [30]", "value": 77.8, "unit": "%"}, {"measurement": "Activity", "setting": "A549 [31]", "value": 16.1, "unit": "%"}]}]}
